From patent publication US10335392B2, “Cyclic compounds useful as modulators of TNF α” (BRISTOL-MYERS SQUIBB COMPANY, priority 2015, dated 2019)

Molecular target: TNFα (Homo sapiens (Human), UniProt P01375)
Experiment: TNF induced HEK-Blue assay
Type: cell-based
Settings: TNFα 0.5 ng/ml; HEK-Blue-CD40L cells, NF-kB-driven secreted alkaline phosphatase reporter; 18 h
Description: TNF or CD40L-Induced HEK-Blue Assay
Test compounds serially diluted in DMSO were plated in an assay plate (LABCYTE, Cat. # LP-0200) at final concentrations ranging from 0.004 μM to 25 μM. TNFα (final concentration 0.5 ng/ml) or CD40L (final concentration 30 ng/ml) in assay buffer [DMEM, 4.5 g/l glucose (Gibco, Cat. 21063-029), 10% FBS (Sigma, F4135), 1% Penicillin-Streptomycin (Gibco, Cat. 15140-122), 1% Anti-Anti (Gibco, Cat. 15240-112) and 2 mM L-glutamine (Gibco, Cat. 25030-081)] was then added to the assay plate. After a 30 minute pre-incubation at 37° C. and 5% CO2, HEK-Blue™-CD40L cells (INVIVOGEN, Cat. Code hkb-cd40) containing a NF-kB-driven secreted alkaline phosphatase reporter gene were seeded into the assay plate at a density of 20,000 cells per well. This plate was then incubated for 18 h at 37° C. and 5% CO2. Secreted alkaline phosphatase expression was measured using QUANTI-Blue™ (INVIVOGEN, Cat. Code rep-qb1) according to manufacturer's specifications and the assay plate was read on a PerkinElmer Envision at 620 nm.
Inhibition data for the test compound over a range of concentrations was plotted as percentage inhibition of the test compound (100%=maximum inhibition). IC50 values were determined after correcting for background [(sample read−mean of low control)/(mean of high control−mean of low control)] where by the low control is DMSO without stimulation and high control is DMSO with stimulation. The IC50 is defined as the concentration of test compound which produces 50% inhibition and was quantified using the 4 parameter logistic equation to fit the data.

TNFα, sequence (P01375 77-233): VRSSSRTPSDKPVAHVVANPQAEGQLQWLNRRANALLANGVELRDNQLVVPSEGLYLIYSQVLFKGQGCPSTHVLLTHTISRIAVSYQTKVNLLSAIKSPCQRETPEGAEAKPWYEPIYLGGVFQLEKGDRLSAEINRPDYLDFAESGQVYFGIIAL

Row | IC50 | Structure (SMILES)
1 | 1 to 10 µM | N#Cc1ccc(-c2cc3c(cc2F)nc2n3[C@@H](c3ccccc3OC(F)F)[C@H]3C[C@@H]23)cn1 [Example 10, 5-((1aR,8R,8aS)-8-(2-(difluoromethoxy)phenyl)-4-fluoro-1,1a,8,8a-tetrahydrobenzo[d]cyclopropa[3,4]pyrrolo[1,2-a]imidazol-5-yl)picolinonitrile]
2 | < 1 µM | OC1(c2ncc(-c3cc4c(cc3F)nc3n4[C@@H](c4ccccc4OC(F)F)[C@H]4C[C@@H]34)cn2)COC1 [Example 14, 3-(5-((1aR,8R,8aS)-8-(2-(difluoromethoxy)phenyl)-4-fluoro-1,1a,8,8a-tetrahydrobenzo[d]cyclopropa[3,4]pyrrolo[1,2-a]imidazol-5-yl)pyrimidin-2-yl)oxetan-3-ol]
3 | < 1 µM | O=S1(=O)CCN(c2ncc(-c3cc4c(cc3F)nc3n4[C@@H](c4ccccc4OC(F)F)[C@H]4C[C@@H]34)cn2)CC1 [Example 15, 4-(5-((1aR,8R,8aS)-8-(2-(difluoromethoxy)phenyl)-4-fluoro-1,1a,8,8a-tetrahydrobenzo[d]cyclopropa[3,4]pyrrolo[1,2-a]imidazol-5-yl)pyrimidin-2-yl) thiomorpholine 1,1-dioxide]
4 | 1 to 10 µM | Fc1cc2nc3n(c2cc1-c1cnc(N2CCOCC2)nc1)[C@H](c1ccccc1OC(F)F)[C@@H]1C[C@H]31 [Example 32, 4-(5-((1aS,8S,8aR)-8-(2-(difluoromethoxy)phenyl)-4-fluoro-1,1a,8,8a-tetrahydrobenzo[d]cyclopropa[3,4]pyrrolo[1,2-a]imidazol-5-yl)pyrimidin-2-yl) morpholine]
5 | < 1 µM | CC(C)(O)c1ncc(-c2cc3c(cc2F)nc2n3[C@@H](c3ccccc3OC(F)F)[C@H]3C[C@@H]23)cn1 [Example 2, 2-(5-((1aR,8R,8aS)-8-(2-(difluoromethoxy)phenyl)-4-fluoro-1,1a,8,8a-tetrahydrobenzo[d]cyclopropa[3,4]pyrrolo[1,2-a]imidazol-5-yl)pyrimidin-2-yl)propan-2-ol]
6 | < 1 µM | O=C1CN(c2ncc(-c3cc4c(cc3F)nc3n4[C@@H](c4ccccc4OC(F)F)[C@H]4C[C@@H]34)cn2)CCN1 [Example 9, 4-(5-((1aR,8R,8aS)-8-(2-(difluoromethoxy)phenyl)-4-fluoro-1,1a,8,8a-tetrahydrobenzo[d]cyclopropa[3,4]pyrrolo[1,2-a]imidazol-5-yl)pyrimidin-2-yl)piperazin-2-one]
7 | < 1 µM | CC(C)(O)c1ncc(-c2cc3c(cc2F)nc2n3[C@@H](c3ccccc3OC(F)F)[C@H]3C[C@@H]23)cn1 (racemic) [Example 1, rac-2-(5-((1aR,8R,8aS)-8-(2-(difluoromethoxy)phenyl)-4-fluoro-1,1a,8,8a-tetrahydrobenzo[d]cyclopropa[3,4]pyrrolo[1,2-a]imidazol-5-yl)pyrimidin-2-yl) propan-2-ol]

The next lines start with the compound.

Row | Structure (SMILES) | IC50
8 | CC(C)(O)c1ncc(-c2cc3c(cc2F)nc2n3[C@@H](c3ccccc3Oc3ccccc3F)[C@@H]3C[C@H]23)cn1 [Example 29, 2-(5-((1aS,8R,8aR)-4-fluoro-8-(2-(2-fluorophenoxy)phenyl)-1,1a,8,8a-tetrahydrobenzo[d]cyclopropa[3,4]pyrrolo[1,2-a]imidazol-5-yl)pyrimidin-2-yl)propan-2-ol] | 1 to 10 µM
9 | CC(C)(O)c1ncc(-c2cc3c(cc2F)nc2n3[C@@H](c3ccccc3Oc3ccccc3)[C@@H]3C[C@H]23)cn1 [Example 27, 2-(5-((1aS,8R,8aR)-4-fluoro-8-(2-phenoxyphenyl)-1,1a,8,8a-tetrahydrobenzo[d]cyclopropa[3,4]pyrrolo[1,2-a]imidazol-5-yl)pyrimidin-2-yl)propan-2-ol] | 1 to 10 µM
10 | CCNC(=O)N1C[C@H]2[C@@H](C1)c1nc3ccc(-c4ccc(OC)nc4)cc3n1[C@H]2c1ccccc1 (racemic) [Example 39, rac-(3aR,10S,10aS)—N-ethyl-7-(6-methoxypyridin-3-yl)-10-phenyl-3,3a,10,10a-tetrahydrobenzo[d]pyrrolo[3′,4′:3,4]pyrrolo[1,2-a]imidazole-2(1H)-carboxamide] | 1 to 10 µM
11 | NC(=O)c1ccc(-c2cc3c(cc2F)nc2n3[C@H](c3ccccc3OC(F)F)[C@@H]3C[C@H]23)cn1 [Example 19, 5-((1aS,8S,8aR)-8-(2-(difluoromethoxy)phenyl)-4-fluoro-1,1a,8,8a-tetrahydrobenzo[d]cyclopropa[3,4]pyrrolo[1,2-a]imidazol-5-yl)picolinamide] | 1 to 10 µM
12 | NS(=O)(=O)c1ccc(-c2cc3c(cc2F)nc2n3[C@@H](c3ccccc3OC(F)F)[C@H]3C[C@@H]23)cc1 [Example 5, 4-((1aR,8R,8aS)-8-(2-(difluoromethoxy)phenyl)-4-fluoro-1,1a,8,8a-tetrahydrobenzo[d]cyclopropa[3,4]pyrrolo[1,2-a]imidazol-5-yl)benzenesulfonamide] | < 1 µM
13 | CNC(=O)c1ccc(-c2ccc3nc4n(c3c2)[C@@H](c2cc(C)ccc2C)[C@H]2[C@H](c3ccccc3)[C@@H]42)cn1 (racemic) [Example 43, rac-5-((1R,1aS,8S,8aR)-8-(2,5-dimethylphenyl)-1-phenyl-1,1a,8,8a-tetrahydrobenzo[d]cyclopropa[3,4]pyrrolo[1,2-a]imidazol-5-yl)-N-methylpicolinamide] | 10 to 25 µM
14 | CNC(=O)c1ccc(-c2cc3c(cc2F)nc2n3[C@@H](c3ccccc3OC(F)F)[C@H]3C[C@@H]23)cn1 [Example 8, 5-((1aR,8R,8aS)-8-(2-(difluoromethoxy)phenyl)-4-fluoro-1,1a,8,8a-tetrahydrobenzo[d]cyclopropa[3,4]pyrrolo[1,2-a]imidazol-5-yl)-N-methylpicolinamide] | 1 to 10 µM
15 | CC(C)(O)c1ccc(-c2cc3c(cc2F)nc2n3[C@@H](c3ccccc3OC(F)F)[C@H]3C[C@@H]23)cn1 [Example 13, 2-(5-((1aR,8R,8aS)-8-(2-(difluoromethoxy)phenyl)-4-fluoro-1,1a,8,8a-tetrahydrobenzo[d]cyclopropa[3,4]pyrrolo[1,2-a]imidazol-5-yl)pyridin-2-yl)propan-2-ol] | < 1 µM
16 | COc1ccc(-c2ccc3nc4n(c3c2)[C@@H](c2ccccc2)[C@H]2CN(C(=O)OC(C)(C)C)C[C@@H]42)cn1 (racemic) [Example 40, rac-tert-butyl (3aR,10S,10aS)-7-(6-methoxypyridin-3-yl)-10-phenyl-3,3a,10,10a-tetrahydrobenzo[d]pyrrolo[3′,4′:3,4]pyrrolo[1,2-a]imidazole-2(1H)-carboxylate] | 10 to 25 µM
17 | COc1ccc(-c2ccc3nc4n(c3c2)[C@@H](c2ccccc2)[C@H]2CN(C(=O)c3ccccc3)C[C@@H]42)cn1 (racemic) [Example 41, rac-((3aR,10S,10aS)-7-(6-methoxypyridin-3-yl)-10-phenyl-3,3a,10,10a-tetrahydrobenzo[d]pyrrolo[3′,4′:3,4]pyrrolo[1,2-a]imidazol-2(1H)-yl)(phenyl)methanone] | 10 to 25 µM
18 | Fc1cc2nc3n(c2cc1Br)[C@@H](c1ccccc1OC(F)F)[C@@H]1C[C@H]31 (racemic) [Example 11, rac-(1aR,8S,8aS)-5-bromo-8-(2-(difluoromethoxy)phenyl)-4-fluoro-1,1a,8,8a-tetrahydrobenzo[d]cyclopropa[3,4]pyrrolo[1,2-a]imidazole] | 10 to 25 µM
19 | NC(=O)c1ccc(-c2cc3c(cc2F)nc2n3[C@@H](c3ccccc3OC(F)F)[C@@H]3C[C@H]23)cn1 [Example 22, 5-((1aS,8R,8aR)-8-(2-(difluoromethoxy)phenyl)-4-fluoro-1,11a,8,8a-tetrahydrobenzo[d]cyclopropa[3,4]pyrrolo[1,2-a]imidazol-5-yl)picolinamide] | < 1 µM
20 | CC(C)(O)c1ccc(-c2cc3c(cc2F)nc2n3[C@@H](c3ccccc3OC(F)F)[C@H]3C[C@@H]23)cc1 [Example 12, 2-(4-((1aR,8R,8aS)-8-(2-(difluoromethoxy)phenyl)-4-fluoro-1,1a,8,8a-tetrahydrobenzo[d]cyclopropa[3,4]pyrrolo[1,2-a]imidazol-5-yl)phenyl)propan-2-ol] | < 1 µM
21 | CC(C)(O)c1ncc(-c2cc3c(cc2F)nc2n3[C@@H](c3ccccc3OCc3ccccc3)[C@@H]3C[C@H]23)cn1 (racemic) [Example 25, rac-2-(5-((1aR,8S,8aS)-8-(2-(benzyloxy)phenyl)-4-fluoro-1,1a,8,8a-tetrahydrobenzo[d]cyclopropa[3,4]pyrrolo[1,2-a]imidazol-5-yl)pyrimidin-2-yl)propan-2-ol] | 1 to 10 µM
22 | COc1ccc(-c2ccc3nc4n(c3c2)[C@@H](c2ccccc2)[C@H]2CN(C(C)=O)C[C@@H]42)cn1 (racemic) [Example 38, rac-1-((3aR,10S,10aS)-7-(6-methoxypyridin-3-yl)-10-phenyl-3,3a,10,10a-tetrahydrobenzo[d]pyrrolo[3′,4′:3,4]pyrrolo[1,2-a]imidazol-2(1H)-yl)ethan-1-one] | 10 to 25 µM
23 | COc1ccc(-c2ccc3nc4n(c3c2)[C@@H](c2ccccc2)[C@H]2CC=CC[C@@H]42)cn1 (racemic) [Example 42, rac-(4aR,11R,11aS)-8-(6-methoxypyridin-3-yl)-1-phenyl-4,4a,11,11a-tetrahydro-1H-benzo[4,5]imidazo[2,1-a]isoindole] | 10 to 25 µM
